For experiment [1], the target named is T1, IDH2 R140Q_G260A cis (Homo sapiens, UniProt P48735, G260A/R140Q).
T1 construct: expressed in transfected cells; host or cells: U-87 MG
T1 sequence (P48735 40-452 R140Q/G260A): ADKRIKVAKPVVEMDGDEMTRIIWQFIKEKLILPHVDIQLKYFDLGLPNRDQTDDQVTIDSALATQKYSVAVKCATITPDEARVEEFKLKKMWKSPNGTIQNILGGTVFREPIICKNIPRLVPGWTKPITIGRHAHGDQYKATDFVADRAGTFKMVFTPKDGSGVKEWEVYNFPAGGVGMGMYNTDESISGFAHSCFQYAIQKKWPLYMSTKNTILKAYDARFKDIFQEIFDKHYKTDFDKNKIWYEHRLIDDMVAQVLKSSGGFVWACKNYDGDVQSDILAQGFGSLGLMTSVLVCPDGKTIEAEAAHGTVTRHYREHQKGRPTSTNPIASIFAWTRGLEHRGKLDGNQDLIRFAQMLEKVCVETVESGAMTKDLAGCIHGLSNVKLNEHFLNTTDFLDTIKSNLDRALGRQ
As to the kind of experiment: Inhibition of 2-HG production in IDH2 mutant U-87 MG cells. The settings on record: 16 hours incubation, 50K cells/well, 100 μl media/well, read-out: Relative IC50 (nM) Mean, inhibition of 2-HG production. In kind it is cell-based.

In experiment [2] the target is T2, IDH2 R140Q_Q316E cis (Homo sapiens, UniProt P48735, Q316E/R140Q).
T2 construct: expressed in transfected cells; host or cells: U-87 MG
T2 sequence (P48735 40-452 R140Q/Q316E): T1 sequence (P48735 40-452 R140Q/G260A) with A221G, Q277E
Described as above. In kind it is cell-based.

Positions count from the first letter of the chain named. pIC50: −log10 of the molar value. Like-named read-outs stand apart in the source and are kept apart here.

Usually IC50 stands for the concentration needed to halve the response being measured. For orientation: pIC50 means the negative decadic logarithm of the IC50, by convention in mol/L. For `C=CC(=O)N1CCN([C@@H](CC2CC2)c2ccc([C@H](C)Nc3ncc4c(n3)N(CC)C(=O)OC4)cc2)CC1` [Compound A, 7-[[(1S)-1-[4-[(1S)-2-cyclopropyl-1-(4-prop-2-enoylpiperazin-1-yl)ethyl]phenyl]ethyl]amino]-1-ethyl-4H-pyrimido[4,5-d][1,3]oxazin-2-one], the IC50 was 7 nM in experiment [1] and 16 nM in experiment [2] (16 hours incubation, 50K cells/well, 100 μl media/well, read-out: Relative IC50 (nM) Mean, inhibition of 2-HG production). In experiment [2] (72 hours incubation, 12.5K cells/well, 150 μl media/well, read-out: IC50, inhibition of 2-HG production), the pIC50 was 7.66.

The values above are taken from patent US20240261294A1, “METHOD FOR TREATING IDH INHIBITOR-RESISTANT SUBJECTS” (Eli Lilly and Company, priority 2021, published 2024).
